Reference: paper doi:10.1101/2022.05.18.492512v2 (biorxiv, 2022)
Changes are numbered by the printed parent chain.

Assays:
ABCG5/G8 [1] = molecular target: T1, ABCG5/G8 (Homo sapiens, UniProt Q9H221+Q9H222, Q9H222:A540F); assay: [3H]cholesterol binding, Ni-NTA bead pull-down, scintillation counting
T1 sequence (Q9H222 1-651 A540F): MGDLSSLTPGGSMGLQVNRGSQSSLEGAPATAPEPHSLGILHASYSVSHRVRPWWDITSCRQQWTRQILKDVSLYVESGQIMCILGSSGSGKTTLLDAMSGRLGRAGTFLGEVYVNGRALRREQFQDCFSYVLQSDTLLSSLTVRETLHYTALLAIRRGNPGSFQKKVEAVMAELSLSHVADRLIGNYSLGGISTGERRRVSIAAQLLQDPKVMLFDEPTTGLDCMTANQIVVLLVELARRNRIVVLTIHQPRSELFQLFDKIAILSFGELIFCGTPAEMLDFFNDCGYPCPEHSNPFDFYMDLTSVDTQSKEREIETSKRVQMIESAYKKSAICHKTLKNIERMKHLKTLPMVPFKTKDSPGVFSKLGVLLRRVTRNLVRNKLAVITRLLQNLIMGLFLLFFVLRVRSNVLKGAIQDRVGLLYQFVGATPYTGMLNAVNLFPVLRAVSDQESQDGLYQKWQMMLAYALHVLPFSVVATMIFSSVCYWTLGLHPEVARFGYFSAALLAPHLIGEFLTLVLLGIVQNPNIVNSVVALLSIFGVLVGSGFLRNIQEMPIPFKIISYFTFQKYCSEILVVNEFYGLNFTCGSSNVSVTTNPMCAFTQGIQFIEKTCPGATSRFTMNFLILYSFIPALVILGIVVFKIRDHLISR
T1 sequence (Q9H221 1-673): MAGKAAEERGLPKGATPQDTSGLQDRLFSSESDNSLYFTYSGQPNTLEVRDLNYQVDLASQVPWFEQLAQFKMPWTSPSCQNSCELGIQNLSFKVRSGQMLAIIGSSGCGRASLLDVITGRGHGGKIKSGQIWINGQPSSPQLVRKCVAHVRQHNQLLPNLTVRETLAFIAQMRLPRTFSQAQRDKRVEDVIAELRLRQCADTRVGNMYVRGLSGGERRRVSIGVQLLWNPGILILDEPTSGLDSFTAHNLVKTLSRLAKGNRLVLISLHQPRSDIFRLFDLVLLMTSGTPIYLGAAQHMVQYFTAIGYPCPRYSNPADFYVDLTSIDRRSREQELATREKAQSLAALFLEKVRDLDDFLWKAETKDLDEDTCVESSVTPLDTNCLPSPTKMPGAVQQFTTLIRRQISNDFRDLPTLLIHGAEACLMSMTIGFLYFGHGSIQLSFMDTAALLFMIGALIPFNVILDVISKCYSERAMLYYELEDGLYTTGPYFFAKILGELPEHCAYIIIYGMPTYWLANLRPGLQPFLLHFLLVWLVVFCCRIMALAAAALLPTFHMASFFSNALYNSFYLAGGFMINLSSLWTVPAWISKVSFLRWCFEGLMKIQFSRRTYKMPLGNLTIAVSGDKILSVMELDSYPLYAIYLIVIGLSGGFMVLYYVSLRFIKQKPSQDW

ABCG5/G8 [2] = molecular target: T2, ABCG5/G8 (Homo sapiens, UniProt Q9H221+Q9H222); assay: as above
T2 sequence (Q9H222 1-651): T1 sequence (Q9H222 1-651 A540F) with F540A
T2 sequence (Q9H221 1-673): T1 sequence (Q9H221 1-673)

- Kd (ABCG5/G8 [1]): 1.55 ± 0.01 µM
- Kd (ABCG5/G8 [2]): 1.46 ± 0.28 µM
SMILES: CC(C)CCC[C@@H](C)[C@H]1CC[C@H]2[C@@H]3CC=C4C[C@@H](O)CC[C@]4(C)[C@H]3CC[C@]12C [cholesterol]
